One series has as its target T1, Aβ42 (Homo sapiens, UniProt P05067).
T1 construct: expressed in transfected cells; host or cells: Escherichia coli BL21 (DE3), pET28a
Description: Inhibition of Aβ42 aggregation in intact E. coli cells overexpressing Aβ42 (ThS fluorescence). The format is cell-based, Escherichia coli. From the text:
(§1) As it would have been labor-intensive and expensive to screen such a number of compounds in two separate antiaggregating studies using recombinant Aβ and Tau, we turned our attention to a simple model of protein aggregation, namely, the intact Escherichia coli (E. coli) cells overexpressing Aβ42 and Tau proteins.[28],[29] Building on the fact that inclusion bodies produced by overexpression of these proteins in E. coli mainly consist of fibrillar aggregates, this simple screening method uses bacteria as an in vivo reservoir for tracking the inhibition of amyloid-type protein aggregation in real time, using the amyloid dye thioflavin S (ThS). Of note, this screening has already been used for the evaluation of libraries of antiaggregating compounds.[28]−[38]
Escherichia coli competent cells BL21 (DE3) were transformed with the pET28a vector (Novagen, Inc., Madison, WI) carrying the DNA sequence of Aβ42. Because of the addition of the initiation codon ATG in front of both genes, the overexpressed peptide contains an additional methionine residue at its N terminus. For overnight culture preparation, an amount of 10 mL of M9 minimal medium containing 50 μg·mL^–1 kanamycin was inoculated with a colony of BL21 (DE3) bearing the plasmid to be expressed at 37 °C. For expression of the Aβ42 peptide, the required volume of overnight culture to obtain 1:500 dilution was added into fresh M9 minimal medium containing 50 μg·mL^–1 kanamycin and 250 μM ThS. The bacterial culture was grown at 37 °C and 250 rpm. When the cell density reached ABS600 nm = 0.6, an amount of 980 μL of culture was transferred into Eppendorf tubes of 1.5 mL with 10 μL of each compound to be tested in DMSO and 10 μL of isopropyl 1-thio-β-D-galactopyranoside (IPTG) at 100 mM. The final concentration of the drug was fixed at 10 μM. The samples were grown overnight at 37 °C and 1400 rpm using a thermomixer (Eppendorf, Hamburg, Germany). As the control of the amyloid presence (maximal amyloid presence), the same amount of DMSO without the drug was added to the sample. In parallel, noninduced samples (in the absence of IPTG) were also prepared and used as controls of the non-amyloid presence. In addition, the absorbance at 600 nm of the samples was checked to assess the potential intrinsic toxicity of the compounds and to confirm the correct bacterial growth.
(§2) ThS (T1892) and other chemical reagents were purchased from Sigma (St. Louis, MO). ThS stock solution (25 mM) was prepared in double-distilled water purified through a Milli-Q system (Millipore). For the fluorescence assay, the ThS spectra were measured on an AMINCO-Bowman series 2 luminescence spectrophotometer (Aminco-Bowman AB2, SLM Aminco, Rochester, NY) from 460 to 600 nm at 25 °C using an excitation wavelength of 440 nm and slit widths of 4 nm. The emission at 485 nm (fluorescence peak of ThS in the presence of amyloids) was recorded. To normalize the ThS fluorescence as a function of the bacterial concentration, ABS600nm was obtained using a Shimadzu UV-2401 PC UV–Vis spectrophotometer (Shimadzu, Japan). Note that the fluorescence normalization was carried out considering as 100% the ThS fluorescence of the bacterial cells expressing the peptide or protein in the absence of the drug and 0% the ThS fluorescence of the bacterial cells nonexpressing the peptide or protein.

Series [1] has as its system cerebellar granule neurons (CGNs). Description: Neurotoxicity on primary cultures of cerebellar granule neurons (nuclei counting after Hoechst staining). The following applies: differentiated CGNs, 24 h, percentage of healthy nuclei on total nuclei, mean ± SEM of three experiments.
The next series concerns the target T2, Tau protein (Homo sapiens, UniProt P10636).
T2 construct: expressed in transfected cells; host or cells: Escherichia coli BL21 (DE3) with pTARA and pRKT42
Description: Inhibition of Tau aggregation in intact E. coli cells overexpressing Tau (ThS fluorescence). The following applies: for inhibition at 10 µM: read-out: % inhibition Tau aggregation @ 10 μM, intact E. coli cells, compound 10 μM, mean ± SEM of four independent experiments; for % inhibition Tau aggregation @ 10 μM: intact E. coli cells, compound 10 μM, mean ± SEM of four independent experiments. Format: cell-based, Escherichia coli.
Text: as §1
E. coli BL21 (DE3) competent cells were transformed with pTARA containing the RNA-polymerase gen of the T7 phage (T7RP) under the control of the promoter PBAD. E. coli BL21 (DE3) with pTARA competent cells were transformed with the pRKT42 vector encoding four repeats of Tau protein in two inserts. For overnight culture preparation, 10 mL of M9 medium containing 0.5% of glucose, 100 μg·mL^–1 ampicillin, and 12.5 μg·mL^–1 chloramphenicol were inoculated with a colony of BL21 (DE3) bearing the plasmids to be expressed at 37 °C. For expression of Tau protein, the required volume of overnight culture to obtain 1:500 dilution was added to fresh M9 minimal medium containing 0.5% of glucose, 50 μg·mL^–1 ampicillin, 12.5 μg·mL^–1 chloramphenicol, and 25 μM ThS. The bacterial culture was grown at 37 °C and 250 rpm. When the cell density reached ABS600 nm= 0.6, an amount of 980 μL of culture was transferred into Eppendorf tubes of 1.5 mL with 10 μL of each compound to be tested in DMSO and 10 μL of arabinose at 25%. The final concentration of the drug was fixed at 10 μM. The samples were grown overnight at 37 °C and 1400 rpm using a thermomixer (Eppendorf, Hamburg, Germany). As the control of maximal amyloid presence, the same amount of DMSO without the drug was added to the sample. In parallel, noninduced samples (in the absence of arabinose) were also prepared and used as controls for the amyloid absence. In addition, the absorbance at 600 nm of the samples was checked to assess the potential intrinsic toxicity of the compounds and to confirm the correct bacterial growth.
as §2

Setting [2] is: read-out: % inhibition Aβ42 aggregation @ 10 μM, intact E. coli cells, compound 10 μM, mean ± SEM of four independent experiments.

Where two headings read alike, the source gives them in different places.

T2 sequence (P10636 1-441 isoform P10636-8): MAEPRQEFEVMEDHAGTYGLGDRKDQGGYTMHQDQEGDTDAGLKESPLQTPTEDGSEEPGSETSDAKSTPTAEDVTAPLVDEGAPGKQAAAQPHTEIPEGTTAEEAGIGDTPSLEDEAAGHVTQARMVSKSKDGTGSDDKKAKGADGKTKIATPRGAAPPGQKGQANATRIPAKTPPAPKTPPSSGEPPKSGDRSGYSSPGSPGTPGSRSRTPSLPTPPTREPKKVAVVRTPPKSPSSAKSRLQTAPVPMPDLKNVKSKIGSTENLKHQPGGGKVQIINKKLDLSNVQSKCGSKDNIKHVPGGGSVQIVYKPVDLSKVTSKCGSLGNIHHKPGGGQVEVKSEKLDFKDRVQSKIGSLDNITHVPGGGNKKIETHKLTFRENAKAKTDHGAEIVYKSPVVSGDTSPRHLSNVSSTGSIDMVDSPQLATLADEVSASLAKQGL
T1 sequence (P05067 672-713 limits assumed): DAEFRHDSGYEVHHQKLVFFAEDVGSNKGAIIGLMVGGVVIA

Consider `O=C1NC(=O)/C(=C/c2ccc(/C=C3\SC(=O)NC3=O)cc2)S1` [Compound 1, (5Z,5′Z)-5,5′-(1,4-Phenylenebis(methanylylidene))bis(thiazolidine-2,4-dione)], for which the inhibition at 10 µM on Aβ42 (setting [2]) stood at 25.4 ± 1.9%; at Tau protein, 19.4 ± 3.6%. Moreover, the “% survival neurotoxicity @ 10 μM” value in series [1] came to 77.6 ± 6.1%.

Regarding `O=C1NC(=O)/C(=C/c2ccc(-c3ccc(/C=C4\SC(=O)NC4=O)cc3)cc2)S1` [Compound 2, (5Z,5′Z)-5,5′-([1,1′-Biphenyl]-4,4′-diylbis(methanylylidene))bis(thiazolidine-2,4-dione)], the values for the inhibition at 10 µM on Aβ42 (setting [2]) and at Tau protein were 20.2 ± 2.1% and 16.5 ± 3.1%, respectively. For the same molecule, the “% survival neurotoxicity @ 10 μM” value in series [1] stood at 81.3 ± 6.5%.

Regarding `O=C1NC(=O)/C(=C/c2ccc(Cc3ccc(/C=C4\SC(=O)NC4=O)cc3)cc2)S1` [Compound 3, (5Z,5′Z)-5,5′-((Methylenebis(4,1-phenylene))bis(methanylylidene))bis(thiazolidine-2,4-dione)], the values for the inhibition at 10 µM on Aβ42 (setting [2]) and at Tau protein were 12.9 ± 3.4% and 5.2 ± 2.7%, respectively. In series [1], the “% survival neurotoxicity @ 10 μM” value is 62.4 ± 9.6%.

Take `O=C1NC(=O)/C(=C/c2ccc3[nH]c4ccc(/C=C5\SC(=O)NC5=O)cc4c3c2)S1` [Compound 4, (5Z,5′Z)-5,5′-((9H-Carbazole-3,6-diyl)bis(methanylylidene))bis(thiazolidine-2,4-dione)]: the values for the inhibition at 10 µM on Aβ42 (setting [2]) and on Tau protein were 24.7 ± 4.1% and 21.2 ± 2.6%, respectively. The “% survival neurotoxicity @ 10 μM” value in series [1] amounted to 73.4 ± 5.1%.

`CC1(C)c2cc(/C=C3\SC(=O)NC3=O)ccc2-c2ccc(/C=C3\SC(=O)NC3=O)cc21` [Compound 5, (5Z,5′Z)-5,5′-((9,9-Dimethyl-9H-fluorene-2,7-diyl)bis(methanylylidene))bis(thiazolidine-2,4-dione)]: the inhibition at 10 µM on Aβ42 (setting [2]) came to 23.6 ± 2.6%; on Tau protein, 14.8 ± 3%. Also, the “% survival neurotoxicity @ 10 μM” value in series [1] is 67.9 ± 5.4%.

On to `O=C1NC(=O)/C(=C/c2ccc(-c3ccc(/C=C4\SC(=O)NC4=O)s3)s2)S1` [Compound 6, (5Z,5′Z)-5,5′-([2,2′-Bithiophene]-5,5′-diylbis(methanylylidene))bis(thiazolidine-2,4-dione)], for which the inhibition at 10 µM was 42.4 ± 4.5% at Aβ42 (setting [2]) and less than 20% on Tau protein. The “% survival neurotoxicity @ 10 μM” value in series [1] turned out to be 89.9 ± 1.2%. The “% inhibition Tau aggregation @ 10 μM” value at Tau protein (10 µM) turned out to be 19.4 ± 3.9%.

For the molecule `CCOC(=O)CN1C(=O)S/C(=C\c2ccc(-c3ccc(/C=C4\SC(=O)N(CC(=O)OCC)C4=O)cc3)cc2)C1=O` [Compound 8, Diethyl 2,2′-((5Z,5′Z)-([1,1′-biphenyl]-4,4′-diylbis(methanylylidene))bis(2,4-dioxothiazolidin-3-yl-5-ylidene))diacetate], the inhibition at 10 µM on Aβ42 (setting [2]) was determined as 14.3 ± 3.5%; on Tau protein, 18.1 ± 3.2%. Besides, the “% survival neurotoxicity @ 10 μM” value in series [1] came out at 87.2 ± 3.1%.

For the molecule `CCOC(=O)CN1C(=O)S/C(=C\c2ccc(Cc3ccc(/C=C4\SC(=O)N(CC(=O)OCC)C4=O)cc3)cc2)C1=O` [Compound 9, Diethyl 2,2′-((5Z,5′Z)-((methylenebis(4,1-phenylene))bis(methanylylidene))bis(2,4-dioxothiazolidin-3-yl-5-ylidene))diacetate], the inhibition at 10 µM on Aβ42 (setting [2]) was found to be 14.5 ± 4.1%; at Tau protein, 19.9 ± 3.6%. For the same molecule, the “% survival neurotoxicity @ 10 μM” value in series [1] is 88.7 ± 4.1%.

As for `CCOC(=O)CN1C(=O)S/C(=C\c2ccc3c(c2)C(C)(C)c2cc(/C=C4\SC(=O)N(CC(=O)OCC)C4=O)ccc2-3)C1=O` [Compound 11, Diethyl 2,2′-((5Z,5′Z)-((9,9-dimethyl-9H-fluorene-2,7-diyl)bis(methanylylidene))bis(2,4-dioxothiazolidin-3-yl-5-ylidene))diacetate], the inhibition at 10 µM is 17.5 ± 4.5% at Aβ42 (setting [2]) and 33.1 ± 4.5% on Tau protein. Further, the “% survival neurotoxicity @ 10 μM” value in series [1] is 85.8 ± 6.9%.

`CCOC(=O)CN1C(=O)S/C(=C\c2ccc(-c3ccc(/C=C4\SC(=O)N(CC(=O)OCC)C4=O)s3)s2)C1=O` [Compound 12, Diethyl 2,2′-((5Z,5′Z)-([2,2′-bithiophene]-5,5′-diylbis(methanylylidene))bis(2,4-dioxothiazolidin-3-yl-5-ylidene))diacetate]: the inhibition at 10 µM at Aβ42 (setting [2]) came out at 7 ± 3.7%; at Tau protein, 9.2 ± 5%. For the same molecule, the “% survival neurotoxicity @ 10 μM” value in series [1] came to 90.2 ± 2.1%.

In the case of `O=C(O)CN1C(=O)S/C(=C\c2ccc(/C=C3\SC(=O)N(CC(=O)O)C3=O)cc2)C1=O` [Compound 13, 2,2′-((5Z,5′Z)-(1,4-Phenylenebis(methanylylidene))bis(2,4-dioxothiazolidin-3-yl-5-ylidene))diacetic acid], the inhibition at 10 µM at Aβ42 (setting [2]) is 16.1 ± 3.9%; on Tau protein, 25.3 ± 4.2%. Also, in series [1], the “% survival neurotoxicity @ 10 μM” value is 82.3 ± 2.9%.

With `O=C(O)CN1C(=O)S/C(=C\c2ccc(-c3ccc(/C=C4\SC(=O)N(CC(=O)O)C4=O)cc3)cc2)C1=O` [Compound 14, 2,2′-((5Z,5′Z)-([1,1′-Biphenyl]-4,4′-diylbis(methanylylidene))bis(2,4-dioxothiazolidin-3-yl-5-ylidene))diacetic acid], the inhibition at 10 µM was 35.1 ± 1.9% at Aβ42 (setting [2]) and 27.1 ± 2.5% on Tau protein. The “% survival neurotoxicity @ 10 μM” value in series [1] amounted to 89.0 ± 2.2%.

Take `O=C(O)CN1C(=O)S/C(=C\c2ccc(Cc3ccc(/C=C4\SC(=O)N(CC(=O)O)C4=O)cc3)cc2)C1=O` [Compound 15, 2,2′-((5Z,5′Z)-((Methylenebis(4,1-phenylene))bis(methanylylidene))bis(2,4-dioxothiazolidin-3-yl-5-ylidene))diacetic acid]: the values for the inhibition at 10 µM on Aβ42 (setting [2]) and on Tau protein were 26.2 ± 1.9% and 3.8 ± 5.2%, respectively. In series [1], the “% survival neurotoxicity @ 10 μM” value is 90.9 ± 1.5%.

With `CC1=CC2Cc3nc4cc(Cl)ccc4c(NCCCCCCCNc4c5c(nc6ccccc46)CCCC5)c3C(C1)C2` (centres unmarked) [HUP7TH, reference compound], the “% inhibition Aβ42 aggregation @ 10 μM” value at Aβ42 (intact E. coli cells, compound 10 μM, mean ± SEM of four independent experiments) came out at 77.6 ± 1.5%. Also, the “% inhibition Tau aggregation @ 10 μM” value on Tau protein was determined as 69.5 ± 1.6%.

Turning to `CC1=CC2Cc3nc4cc(Cl)ccc4c(N)c3C(C1)C2` (centres unmarked) [Huprine Y, huprine Y, reference compound], the inhibition at 10 µM at Aβ42 (read-out: % inhibition Aβ42 aggregation @ 10 μM) was 4.6 ± 2.3%.

As to `O=C(O)c1cc(O)c2c(c1)C(=O)c1cccc(O)c1C2=O` [Rhein, rhein, reference compound], the inhibition at 10 µM on Tau protein was found to be 39.2 ± 2.1%.

The values are drawn from paper PMC9732823, “Discovery of Dual Aβ/Tau Inhibitors and Evaluation of Their Therapeutic Effect on a Drosophila Model of Alzheimer’s Disease” (ACS Chemical Neuroscience, 2022).
